Reference: patent publication US20200341000A1, “METHOD OF SCREENING COMPOUNDS FOR TREATING CNS DISORDERS” (SAGE THERAPEUTICS, INC., priority 2017, published 2020)
Read-outs that look alike come from different tables or passages of the source.

What was measured:
Format in all cases: cell-based
α1β2γ2 GABAA receptors = target: T1, α1β2γ2 GABAA receptors (Homo sapiens, UniProt P14867+P18507+P47870); assay: Whole-cell patch clamp, potentiation of GABA EC20 currents at recombinant synaptic-type receptors (LTK cells); details: n = 3
T1 construct: expressed in transfected cells
Procedure: Cellular electrophysiology was used to measure the pharmacological properties of ALLO, ganaxolone and SGE-516 in heterologous cell systems. Compounds were tested for their ability to affect GABA mediated currents at a submaximal agonist dose (GABA EC20=2 μM).
LTK cells were stably transfected with the α1β2γ2 subunits of the GABA receptor and CHO cells are transiently transfected with the α4β3γ subunits via the Lipofecatamine method. Cells were passaged at a confluence of about 50-80% and then seeded onto 35 mm sterile culture dishes containing 2 ml culture complete medium without antibiotics or antimycotics. Cells were cultivated at a density that enabled the recording of single cells without visible connections to other cells.
Whole-cell currents were measured with HEKA EPC-10 amplifiers using PatchMaster software. Bath solution for all experiments contained (in mM): NaCl 137, KCl 4, CaCl2 1.8, MgCl2 1, HEPES 10, D-Glucose 10, pH 7.4 with NaOH. Intracellular (pipette) solution contained (in mM): KCl 130, MgCl2 1, Mg-ATP 5, HEPES 10, EGTA 5, pH 7.2 with KOH. During experiments, cells and solutions were maintained at room temperature (19° C.-30° C.). For manual patchclamp recordings, cell culture dishes were placed on the dish holder of the microscope and continuously perfused (1 ml/min) with bath solution. After formation of a Gigaohm seal between the patch electrode and the cell (pipette resistance range: 2.5 MΩ-6.0MΩ; seal resistance range: >1 GΩ) the cell membrane across the pipette tip was ruptured to assure electrical access to the cell interior (whole-cell patch configuration).
Cells were voltage-clamped at a holding potential of −80 mV. GABAA receptors were activated by 2 μM GABA and compounds were sequentially applied at increasing concentrations for 30 s prior to a 2 s application of GABA. GABA and compounds were applied to cells via the Dynaflow perfusion system (Cellectricon, Sweden). Test compounds were dissolved in DMSO to form 10 mM stock solution and serially diluted to 0.01, 0.1, 1, and 10 μM in bath solution. […] All concentrations of test compound were tested on each cell. The relative percentage potentiation was defined as the peak amplitude in response to GABA EC20 in the presence of test compound divided by the peak amplitude in response to GABA EC20 alone, multiplied by 100.
ALLO and ganaxolone are known PAMs of both synaptic and extrasynaptic GABAAR-mediated currents. […] The α1β2γ2 or α4β3δ subunit combinations were chosen as representatives of typical synaptic and extrasynaptic GABAA receptors respectively.

[1] = system: plasma membrane GABAARs containing the α4 and β3 subunits; assay: Biotinylation, surface/total GABAAR subunits in hippocampal slices of WT mice
Procedure: Hippocampi were dissected out of acute slices from 8 to 12 week old C57/B16 mice and lysed with phosphate buffer including: 20 mM Tris-HCl, 150 mM NaCl, 5 mM EDTA, 10 mM NaF, 2 mM Na3VO4, 10 mM pyrophosphate, 0.1% SDS and 1% Triton after drug treatment. The β3 subunit was isolated using immunoprecipitation with β3 antibodies, after correction for protein content and the specific activity of labeling. Results were attained by SDS/PAGE followed by autoradiography (Abramian et al., 2010). For biotinylation experiments hippocampi were dissected out of acute slices from 8 to 12 week old C57/B16 mice and incubated in artificial cerebrospinal fluid (ACSF) described above at 30° C. for 1 h for recovery before experimentation. Slices were then placed on ice and incubated for 30 min with 1 mg/mL NHS-SS-biotin (Pierce). Excess biotin was removed by a 50 mM glycine quenching buffer, followed by washing of slices three times in ice-cold ACSF. The tissue was snap frozen on dry ice for 5 min, thawed at 4° C. and lysed. The lysates were solubilized with 2% Triton at 4° C. on a rotating wheel for 1 h. The insoluble material was removed by centrifugation, and 350-500 μg of protein lysate were incubated with NeutrAvidin beads (Pierce) for 18-24 h at 4° C. Bound material was eluted with sample buffer and subjected to SDS/PAGE and then immunoblotted with the indicated antibodies. Blots were then quantified using the CCD-based ChemiDoc XRS ? system. Antibodies against the β3 subunit and the phospho-β3 antibody were generated and verified by the laboratory of S.J.M. (Vien et al., 2015).
Hippocampal slices were treated as outlined above. Treated slices were then subject to biotinylation and lysis, and surface fractions were isolated on immobilized avidin. Surface (S) and total (T) fractions were immunoblotted with α4 and β3 subunit antibodies.
Consistent with the examples above, hippocampal slices from WT and S408/9A mice were treated for 20 min with 100 nM SGE-516 or vehicle (Con) and subjected to biotinylation followed by immunoblotting with β3 and α4 subunit antibodies. The ratio of surface/total (S/T) immunoreactivity was then normalized to levels seen in control (100%).

[2] = system: sIPSCs in DGGCs (mutant mice); assay: Decay time of sIPSCs in DGGCs of mutant mice; details: 100 nM
Procedure: The ability of 100 nM ALLO to modulate the decay time of sIPSCs was compared in DGGCs from WT and S940A mice as detailed in FIG. 2.

[3] = system: GABA receptor trafficking; assay: GABA receptor trafficking measured by GABAergic current density (FIG. 14); details: measured by the GABAergic current density
Source text: As shown in above examples, not all neurosteroids can modulate GABA receptor trafficking.

[4] = system: GABA-evoked currents in GT1-7 cells; assay: Patch-clamp of GABA-induced currents in GT1-7 cells, compound in the pipette electrolyte; details: 100 nM in electrolyte, GABA EC20, 20 min time course
Procedure: Patch-clamp recordings were made from GT1-7 cells. The magnitude of the GABA-induced currents (IGABA) at EC20 agonists concentration were then measured, in the presence of control electrolyte or that supplemented with 100 nM ALLO, or 100 nM ORG OD 02-0 over a time course of 20 min.

[5] = relative percentage potentiation of GABA EC20 peak current

T1 sequence (P14867 28-456): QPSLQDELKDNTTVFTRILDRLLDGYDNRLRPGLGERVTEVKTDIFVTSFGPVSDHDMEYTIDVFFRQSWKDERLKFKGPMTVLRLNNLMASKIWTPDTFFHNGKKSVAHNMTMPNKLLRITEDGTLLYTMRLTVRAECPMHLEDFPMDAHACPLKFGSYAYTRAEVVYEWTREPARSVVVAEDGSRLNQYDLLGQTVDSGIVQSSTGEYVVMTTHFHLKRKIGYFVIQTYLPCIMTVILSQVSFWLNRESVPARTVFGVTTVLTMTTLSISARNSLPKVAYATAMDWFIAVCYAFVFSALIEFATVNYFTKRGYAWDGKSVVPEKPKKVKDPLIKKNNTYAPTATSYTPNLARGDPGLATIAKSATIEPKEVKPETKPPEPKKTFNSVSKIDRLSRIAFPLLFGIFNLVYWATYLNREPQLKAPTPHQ
T1 sequence (P47870 25-512 limits assumed): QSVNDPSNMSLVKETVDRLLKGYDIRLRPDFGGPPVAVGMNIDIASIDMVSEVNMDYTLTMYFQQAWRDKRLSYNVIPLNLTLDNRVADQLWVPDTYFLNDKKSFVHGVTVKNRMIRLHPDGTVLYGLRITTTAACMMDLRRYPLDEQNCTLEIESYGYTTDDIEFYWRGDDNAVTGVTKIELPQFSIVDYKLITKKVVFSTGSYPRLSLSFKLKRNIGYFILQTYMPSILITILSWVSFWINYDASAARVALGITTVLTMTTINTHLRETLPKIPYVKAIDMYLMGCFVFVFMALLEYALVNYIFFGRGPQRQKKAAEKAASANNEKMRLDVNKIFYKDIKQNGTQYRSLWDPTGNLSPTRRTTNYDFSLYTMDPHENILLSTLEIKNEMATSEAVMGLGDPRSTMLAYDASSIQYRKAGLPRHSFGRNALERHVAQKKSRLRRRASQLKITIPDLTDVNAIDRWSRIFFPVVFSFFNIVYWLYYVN
T1 sequence (P18507 40-475): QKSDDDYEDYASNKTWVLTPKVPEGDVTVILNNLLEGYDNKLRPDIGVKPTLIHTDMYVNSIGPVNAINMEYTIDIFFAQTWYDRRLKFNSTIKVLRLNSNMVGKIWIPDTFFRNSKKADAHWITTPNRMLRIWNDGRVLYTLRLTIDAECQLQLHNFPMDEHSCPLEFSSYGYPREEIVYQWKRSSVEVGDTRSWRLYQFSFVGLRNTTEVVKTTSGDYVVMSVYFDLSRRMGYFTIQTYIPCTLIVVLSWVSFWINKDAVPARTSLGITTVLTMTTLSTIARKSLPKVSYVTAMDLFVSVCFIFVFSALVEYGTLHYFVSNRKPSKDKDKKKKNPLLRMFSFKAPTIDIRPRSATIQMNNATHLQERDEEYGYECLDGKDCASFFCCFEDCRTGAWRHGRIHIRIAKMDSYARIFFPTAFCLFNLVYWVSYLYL

With `CC(=O)[C@H]1CC[C@H]2[C@@H]3CC[C@H]4C[C@H](O)CC[C@]4(C)[C@H]3CC[C@]12C` [ALLO, Allopregnanolone] the EC50 (α1β2γ2 GABAA receptors; EC50, potentiation of GABA current, α1β2γ2, GABA EC20 (2 μM)) was 115 nM, the Emax (α1β2γ2 GABAA receptors; LTK, relative percentage potentiation of GABA EC20 peak current, read-out: Emax ± S.E.M., α1β2γ2) was 229% and the “Emax ± S.E.M., α1β2γ2” value (α1β2γ2 GABAA receptors; [5]) was 229 ± 19%. The “GABAA-β3-containing receptors at the plasma membrane (surface β3/T-β3)” value ([1]; 100 nM, 20 min) was “increases”, the “decay time of sIPSCs” value [2] was “did not increase” and the “modulation of GABA receptor trafficking” value [3] was “modulated GABA receptor trafficking”. The “GABA-evoked currents (IGABA) over time” value [4] was “sustained increases”.
With `C[C@@]1(O)CC[C@H]2[C@H](CC[C@@H]3[C@@H]2CC[C@]2(C)[C@@H](C(=O)Cn4nccn4)CC[C@@H]32)C1` [SGE-516] the “pEC50 ± S.E.M., α1β2γ2” value (α1β2γ2 GABAA receptors; GABA EC20 (2 μM)) was 7.2 ± 0.3, the EC50 (α1β2γ2 GABAA receptors; GABA EC20 (2 μM), read-out: EC50, potentiation of GABA current, α1β2γ2) was 61 nM and the “Emax ± S.E.M., α1β2γ2” value (α1β2γ2 GABAA receptors; [5]) was 219%. For the same molecule, the “GABAA-β3-containing receptors at the plasma membrane (surface β3/T-β3)” value ([1]; 100 nM, 20 min) was “increases”, the “plasma membrane levels of GABAARs containing α4 and β3 subunits, S/T normalized to control (100%)” value ([1]; 100 nM, 20 min, WT mice) was 175-185% and the “plasma membrane accumulation of the α4 and β3 subunits” value ([1]; hippocampal slices, biotinylation) was “increased”. For the same molecule, the “modulation of GABA receptor trafficking” value [3] was “modulated GABA receptor trafficking”.
